For this data set, the system named is calf thymus double stranded DNA and ribosomal RNA. Description: Determination of DNA/RNA fluorescence ratios. The note with it: for DNA/RNA (fluorescence ratio): 65 ug/mL calf thymus dsDNA vs 65 ug/mL ribosomal RNA, 10 mM Tris, 1 mM EDTA pH 7.5, ratio of 1 = no selectivity; for ex/em: emission: emission value, second number of ex/em cell; for ex/em: excitation: excitation value, first number of ex/em cell. Type of data set: binding. On the procedure:
The tested compound was dissolved as a stock solution in DMSO at a concentration of about 0.1-1.0 mg/mL. The exact concentration is not critical. Three tubes are prepared, each containing the same 1-20 uL of stock solution. The first tube contained 10 mM Tris, 1 mM EDTA (pH 7.5) buffer; the second tube contained buffer and 65 ug/mL calf thymus double stranded DNA; and the third tube contained buffer and 65 ug/mL ribosomal RNA. The tubes were incubated at room temperature for 10-15 minutes with protection from light.
In some cases, it was necessary to dilute the sample to keep the fluorescence signal on-scale. In these cases, all three samples were diluted to the same degree. The ratio of the fluorescence of the compound in the presence of DNA and RNA was determined.
The following compounds were selected as representative of the inventive class of compounds. The fluorescence values in the presence of DNA and RNA were determined as described in the previous Example. […] A ratio of 1 would indicate no selectivity. Excitation and emission values are in nm

For `CCCN(CCCN(C)C)C1=CC(=Cc2sc3cc(-c4c(OC)cccc4OC)ccc3[n+]2C)c2ccccc2N1Cc1ccccc1` [Compound 16], the “DNA/RNA (fluorescence ratio)” value is reported as 15.2, the “ex/em: emission” value is 532 nm and the “ex/em: excitation” value was found to be 504 nm.
The matching figures for `COc1cccc(OC)c1-c1ccc2c(c1)sc(C=C1C=C(N(C)CCN(C)C)N(Cc3ccccc3)c3ccccc31)[n+]2C` [Compound 18]: 3.5, 533 nm and 505 nm.
Turning to `COc1cccc(OC)c1-c1ccc2c(c1)sc(C=C1C=C(n3ccnc3)N(Cc3ccccc3)c3ccccc31)[n+]2C` [Compound 19], the “DNA/RNA (fluorescence ratio)” value amounted to 7.3, the “ex/em: emission” value amounted to 553 nm and the “ex/em: excitation” value worked out at 525 nm.
The matching figures for `COc1cccc(OC)c1-c1ccc2c(c1)sc(C=C1C=C(N3CCNCC3)N(Cc3ccccc3)c3ccccc31)[n+]2C` [Compound 21]: 5.4, 534 nm and 510 nm.
For `CNCCN(C)C1=CC(=Cc2sc3cc(-c4c(OC)cccc4OC)ccc3[n+]2C)c2ccccc2N1Cc1ccccc1` [Compound 22], in that order: 4.7, 534 nm and 505 nm.
For the molecule `CNCCCN(C)C1=CC(=Cc2sc3cc(-c4c(OC)cccc4OC)ccc3[n+]2C)c2ccccc2N1Cc1ccccc1` [Compound 23], the “DNA/RNA (fluorescence ratio)” value was 3.8, the “ex/em: emission” value was 529 nm and the “ex/em: excitation” value was found to be 500 nm.
Turning to `CCN(CC)Cc1ccc(C2=CC(=Cc3sc4cc(-c5c(OC)cccc5OC)ccc4[n+]3C)c3ccccc3N2Cc2ccccc2)cc1` [Compound 25], the “DNA/RNA (fluorescence ratio)” value was determined as 9, the “ex/em: emission” value turned out to be 559 nm and the “ex/em: excitation” value worked out at 518 nm.
For `CCCCC1=CC(=Cc2sc3cc(-c4c(OC)cccc4OC)ccc3[n+]2C)c2ccccc2N1Cc1ccccc1` [Compound 26], in that order: 36, 541 nm and 505 nm.
As for `CCCN(CCCN(C)C)C1=CC(=Cc2sc3cc(-c4c(OC)cccc4OC)ccc3[n+]2C)c2ccccc2N1c1ccccc1` [Compound 28], the “DNA/RNA (fluorescence ratio)” value is recorded as 6.5, the “ex/em: emission” value worked out at 527 nm and the “ex/em: excitation” value is 497 nm.
For `CCCN(CCCN(C)C)C1=CC(=Cc2sc3cc(-c4c(OC)cccc4OC)ccc3[n+]2C)c2ccccc2N1C` [Compound 30], in that order: 5.7, 527 nm and 495 nm.
Regarding `CCCN(CCC[N+](C)(C)C)C1=CC(=Cc2sc3cc(-c4c(OC)cccc4OC)ccc3[n+]2C)c2ccccc2N1Cc1ccccc1` [Compound 31], the “DNA/RNA (fluorescence ratio)” value was 10.5, the “ex/em: emission” value is given as 534 nm and the “ex/em: excitation” value turned out to be 505 nm.
The matching figures for `COC1=CC(=Cc2sc3cc(-c4c(OC)cccc4OC)ccc3[n+]2C)c2ccccc2N1Cc1ccccc1` [Compound 32]: 36, 517 nm and 498 nm.
For `C#CCN1C(N(CCC)CCCN(C)C)=CC(=Cc2sc3cc(-c4c(OC)cccc4OC)ccc3[n+]2C)c2ccccc21` [Compound 34], in that order: 5.8, 532 nm and 503 nm.
As for `CCCN(CCCN(C)C)C1=CC(=Cc2sc3cc(-c4c(OC)cccc4OC)ccc3[n+]2C)c2ccc(OC)cc2N1Cc1ccccc1` [Compound 38], the “DNA/RNA (fluorescence ratio)” value is on record as 13, the “ex/em: emission” value was 522 nm and the “ex/em: excitation” value was 497 nm.
The matching figures for `CCCN(CCCN(C)C)C1=CC(=Cc2sc3cc(-c4c(OC)cccc4OC)ccc3[n+]2C)c2cc(OC)ccc2N1Cc1ccccc1` [Compound 39]: 6.1, 536 nm and 507 nm.
Regarding `COc1cccc(OC)c1-c1ccc2c(c1)sc(C=C1C=CN(Cc3ccc(CN4CCN(C)CC4)cc3)c3ccccc31)[n+]2C` [Compound 44], the “DNA/RNA (fluorescence ratio)” value was 22, the “ex/em: emission” value stood at 540 nm and the “ex/em: excitation” value was 510 nm.
Consider `COc1cccc(OC)c1-c1ccc2c(c1)sc(C=C1C=CN(Cc3ccc(CN4CCOCC4)cc3)c3ccccc31)[n+]2C` [Compound 45], for which the “DNA/RNA (fluorescence ratio)” value is reported as 13.2, the “ex/em: emission” value is recorded as 541 nm and the “ex/em: excitation” value is reported as 511 nm.
With `COc1cccc(OC)c1-c1ccc2c(c1)sc(C=C1C=CN(Cc3ccc(C[N+](C)(C)CCCN(C)C)cc3)c3ccccc31)[n+]2C` [Compound 46], the “DNA/RNA (fluorescence ratio)” value is 11.5, the “ex/em: emission” value was found to be 542 nm and the “ex/em: excitation” value was 512 nm.
For `COc1cccc(OC)c1-c1ccc2c(c1)sc(C=C1C=CN(Cc3ccc(CN(C)CCCN(C)C)cc3)c3ccccc31)[n+]2C` [Compound 47], the “DNA/RNA (fluorescence ratio)” value is on record as 8.6, the “ex/em: emission” value amounted to 541 nm and the “ex/em: excitation” value turned out to be 512 nm.
As for `COc1cccc(OC)c1-c1ccc2c(c1)sc(C=C1C=CN(Cc3ccc(C[N+](C)(C)C)cc3)c3ccccc31)[n+]2C` [Compound 48], the “DNA/RNA (fluorescence ratio)” value was 7.3, the “ex/em: emission” value came out at 540 nm and the “ex/em: excitation” value came to 513 nm.
On to `COc1cccc(OC)c1-c1ccc2c(c1)sc(C=C1C=CN(Cc3ccc(C[N+](C)(C)CCC[N+](C)(C)C)cc3)c3ccccc31)[n+]2C` [Compound 49], for which the “DNA/RNA (fluorescence ratio)” value is recorded as 18, the “ex/em: emission” value came out at 542 nm and the “ex/em: excitation” value is 520 nm.
On to `COc1cccc(OC)c1-c1ccc2c(c1)sc(C=C1C=CN(Cc3ccccc3)c3ccccc31)[n+]2C` [Compound 53], for which the “DNA/RNA (fluorescence ratio)” value was 60, the “ex/em: emission” value is 540 nm and the “ex/em: excitation” value worked out at 510 nm.
Regarding `COc1cccc(OC)c1-c1ccc2c(c1)sc(C=C1C=CN(Cc3ccncc3)c3ccccc31)[n+]2C` [Compound 55], the “DNA/RNA (fluorescence ratio)” value worked out at 10.9, the “ex/em: emission” value was found to be 541 nm and the “ex/em: excitation” value is reported as 513 nm.
The matching figures for `COc1cccc(OC)c1-c1ccc2c(c1)sc(C=C1C=CN(Cc3cc[n+](C)cc3)c3ccccc31)[n+]2C` [Compound 56]: 3.7, 545 nm and 515 nm.
For `CCCCn1cc(N2C(N(CCC)CCCN(C)C)=CC(=Cc3sc4cc(-c5c(OC)cccc5OC)ccc4[n+]3C)c3ccccc32)nn1` [Compound 57], in that order: 3.8, 536 nm and 506 nm.
The matching figures for `COc1cccc(OC)c1-c1ccc2c(c1)sc(C=C1C=CN(CCc3ccccc3)c3ccccc31)[n+]2C` [Compound 62]: 48, 539 nm and 510 nm.
Regarding `COc1cccc(OC)c1-c1ccc2c(c1)sc(C=C1C=CN(C)c3ccccc31)[n+]2C` [Compound 65], the “DNA/RNA (fluorescence ratio)” value came out at 11.3, the “ex/em: emission” value came to 536 nm and the “ex/em: excitation” value turned out to be 506 nm.
For `CCCN(CCCN(C)C)C1=CC(=Cc2sc3cc(-c4c(C)cccc4C)ccc3[n+]2C)c2ccccc2N1c1ccccc1` [Compound 68], in that order: 7, 523 nm and 498 nm.
The matching figures for `Cc1cccc(C)c1-c1ccc2c(c1)sc(C=C1C=C(N(C)CCCN(C)C)N(c3ccccc3)c3ccccc31)[n+]2C` [Compound 69]: 3.2, 523 nm and 494 nm.
Take `Cc1cccc(C)c1-c1ccc2c(c1)sc(C=C1C=C(N(C)CCCN(C)C)N(Cc3ccccc3)c3ccccc31)[n+]2C` [Compound 70]: the “DNA/RNA (fluorescence ratio)” value was 2.7, the “ex/em: emission” value was found to be 524 nm and the “ex/em: excitation” value was determined as 501 nm.
The matching figures for `C[n+]1c(C=C2C=CN(Cc3ccccc3)c3ccccc32)oc2ccc(-c3ccccc3)cc21` [Compound 89]: 1.8, 512 nm and 485 nm.
For `CCN(CC)Cc1ccc(C2=CC(=Cc3sc4cc(-c5ccccc5)ccc4[n+]3C)c3ccccc3N2c2ccccc2)cc1` [Compound 91], the “DNA/RNA (fluorescence ratio)” value was found to be 1.5, the “ex/em: emission” value was 563 nm and the “ex/em: excitation” value worked out at 522 nm.
Take `C[n+]1c(C=C2C=CN(Cc3ccccc3)c3ccccc32)sc2cc(-c3ccccc3)ccc21` [Compound 92]: the “DNA/RNA (fluorescence ratio)” value worked out at 1, the “ex/em: emission” value is 501 nm and the “ex/em: excitation” value was determined as 458 nm.
For `C[n+]1c(C=C2C=CN(Cc3ccccc3)C(c3ccccc3)=C2)sc2cc(-c3ccccc3)ccc21` [Compound 93], in that order: 1.5, 514 nm and 466 nm.

(Values after patent publication US9366676B2, “Fluorescent chemical compounds having high selectivity for double stranded DNA, and methods for their use” (LIFE TECHNOLOGIES CORPORATION, priority 2005, dated 2016).)
